From patent US7420056B2, “Substituted bicyclic imidazo-3-ylamine compounds” (Gruenenthal GmbH, priority 2004, dated 2008)

Target: mGluR5 receptor (Sus scrofa, UniProt I3LUI7)
Assay: Affinity for the mGluR5 receptor: inhibition of 3[H]-MPEP binding in pig brain homogenate
Conditions: for inhibition at 10 µM: 10 μM compound, 5 nM 3[H]-MPEP, read-out: mGluR5 receptor inhibition of ^3[H]-MPEP binding [10 μM] in % at a concentration of the example compounds of 10 μM; for IC50: 3[H]-MPEP binding
Description: 1. Method for Determining Affinity for the mGluR5 Receptor
Pig brain homogenate is produced by homogenisation (Polytron Pt 3000, Kinematica AG, 10,000 revolutions per minute for 90 seconds) of pig brain hemispheres without medulla, cerebellum and pons in a buffer of pH 8.0 (30 mM Hepes, Sigma, order number H3375+1 tablet Complete Roche Diagnostics, order number 1836145 made up to 100 ml) in a ratio of 1:20 (brain weight/volume) and differential centrifugation at 900×g and 40,000×g. 450 μg of protein from brain homogenate is incubated in each case in 250 μl incubation batches in 96-well microtitre plates with 5 nM 3[H]-MPEP (Tocris, order number R1212) (MPEP=2-methyl-6-[…]) and the compounds to be investigated (10 μM in the test) in the buffer (as above) at room temperature for 60 minutes.
The batches are then filtered with the assistance of a Brandel Cell Harvester (Brandel, Grade Robotic 9600) on Unifilter plates with glass filter mats (Perkin Elmer, order number 6005177) and then washed 3 times with buffer (as above) using 250 μl per sample. The filter plates are then dried for 60 minutes at 55° C. Then 30 μl of Ultima Gold™ scintillating material (Packard BioScience, order number 6013159) is added per well and after 3 hours the samples are measured using the β counter (Microbeta, Perkin Elmer). Nonspecific binding is determined by the addition of 10 μM MPEP (Tocris, order number 1212).

Sequence of mGluR5 receptor (I3LUI7 19-1212): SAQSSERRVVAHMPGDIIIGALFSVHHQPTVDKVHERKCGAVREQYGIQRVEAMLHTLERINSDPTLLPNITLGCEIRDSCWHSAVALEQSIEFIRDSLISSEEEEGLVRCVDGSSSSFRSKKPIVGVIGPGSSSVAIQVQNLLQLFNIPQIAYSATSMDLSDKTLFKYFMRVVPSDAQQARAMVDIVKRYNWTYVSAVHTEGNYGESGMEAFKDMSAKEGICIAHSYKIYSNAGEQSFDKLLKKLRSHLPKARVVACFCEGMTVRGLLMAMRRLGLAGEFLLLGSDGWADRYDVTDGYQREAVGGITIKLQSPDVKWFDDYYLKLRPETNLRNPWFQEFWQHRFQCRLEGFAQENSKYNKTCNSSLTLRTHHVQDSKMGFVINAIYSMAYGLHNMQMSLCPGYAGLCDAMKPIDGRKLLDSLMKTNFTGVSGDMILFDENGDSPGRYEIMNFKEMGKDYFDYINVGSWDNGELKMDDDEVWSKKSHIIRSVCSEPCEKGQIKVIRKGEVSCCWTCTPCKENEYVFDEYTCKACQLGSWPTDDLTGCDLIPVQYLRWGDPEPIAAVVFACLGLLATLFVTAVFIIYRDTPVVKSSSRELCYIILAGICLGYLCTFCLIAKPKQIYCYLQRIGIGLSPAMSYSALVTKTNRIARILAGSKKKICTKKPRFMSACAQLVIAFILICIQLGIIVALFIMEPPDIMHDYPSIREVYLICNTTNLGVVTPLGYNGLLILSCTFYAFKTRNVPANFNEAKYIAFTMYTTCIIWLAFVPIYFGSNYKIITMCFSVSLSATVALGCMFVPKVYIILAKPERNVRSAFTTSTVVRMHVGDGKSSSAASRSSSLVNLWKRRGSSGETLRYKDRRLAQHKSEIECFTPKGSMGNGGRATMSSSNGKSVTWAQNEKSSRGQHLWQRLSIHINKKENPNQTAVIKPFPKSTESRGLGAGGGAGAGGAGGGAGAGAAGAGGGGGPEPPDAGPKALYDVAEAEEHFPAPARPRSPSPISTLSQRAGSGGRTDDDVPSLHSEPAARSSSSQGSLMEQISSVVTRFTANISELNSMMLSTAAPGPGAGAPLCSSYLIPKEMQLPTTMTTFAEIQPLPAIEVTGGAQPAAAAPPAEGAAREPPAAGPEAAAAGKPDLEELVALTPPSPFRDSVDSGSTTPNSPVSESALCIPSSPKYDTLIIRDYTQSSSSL

Compound | inhibition at 10 µM | IC50
CC(C)(C)CC(C)(C)Nc1c(-c2ccc(C#Cc3ccccc3)s2)nc2ccc(Cl)cn12 [Example 62, [6-chloro-2-(5-phenylethynyl-thiophen-2-yl)-imidazo[1,2-a]pyridin-3-yl]-(1,1,3,3-tetramethyl-butyl)-amine] | 26% | 
CC(C)(C)CC(C)(C)Nc1c(-c2ccc(C#Cc3ccccc3)s2)nc2c(Cl)cc(Cl)cn12 [Example 63, [6,8-dichloro-2-(5-phenylethynyl-thiophen-2-yl)-imidazo[1,2-a]pyridin-3-yl]-(1,1,3,3-tetramethyl-butyl)-amine] | 65% | 
CN(C)c1c(-c2ccc(C#Cc3ccccc3)s2)nc2cnccn12 [Example 65, dimethyl-[2-(5-phenylethynyl-thiophen-2-yl)-imidazo[1,2-a]pyrazin-3-yl]-amine] |  | 3840 nM
CNc1c(-c2ccc(C#Cc3ccccc3)s2)nc2cnccn12 [Example 66, methyl-[2-(5-phenylethynyl-thiophen-2-yl)-imidazo[1,2-a]pyrazin-3-yl]-amine] |  | 3170 nM
CC(=O)Nc1c(-c2ccc(C#Cc3ccccc3)s2)nc2cnccn12 [Example 67, N-[2-(5-phenylethynyl-thiophen-2-yl)-imidazo[1,2-a]pyrazin-3-yl]-acetamide] |  | 3840 nM
CCNc1c(-c2ccc(C#Cc3ccccc3)s2)nc2cnccn12 [Example 68, ethyl-[2-(5-phenylethynyl-thiophen-2-yl)-imidazo[1,2-a]pyrazin-3-yl]-amine] |  | 2320 nM
CCCNc1c(-c2ccc(C#Cc3ccccc3)s2)nc2cnccn12 [Example 69, propyl-[2-(5-phenylethynyl-thiophen-2-yl)-imidazo[1,2-a]pyrazin-3-yl]-amine] |  | 2930 nM
CCCCCNc1c(-c2ccc(C#Cc3ccccc3)s2)nc2cnccn12 [Example 72, pentyl-[2-(5-phenylethynyl-thiophen-2-yl)-imidazo[1,2-a]pyrazin-3-yl]-amine] |  | 5340 nM
COC(=O)CN(CC(=O)OC)c1c(-c2ccc(C#Cc3ccccc3)s2)nc2cnccn12 [Example 73, {(methoxycarbonylmethyl)-[2-(5-phenylethynyl-thiophen-2-yl)-imidazo[1,2-a]pyrazin-3-yl]-amino}-acetic acid methyl ester] |  | 2210 nM
C(#Cc1ccc(-c2nc3cnccn3c2N(Cc2cccnc2)Cc2cccnc2)s1)c1ccccc1 [Example 79, [2-(5-phenylethynyl-thiophen-2-yl)-imidazo[1,2-a]pyrazin-3-yl]-bis-pyridin-3-ylmethyl-amine] | 35% | 
Nc1c(-c2ccc(C#Cc3ccccc3)s2)nc2cnccn12 [Example 83, 2-(5-phenylethynyl-thiophen-2-yl)-imidazo[1,2-a]pyrazin-3-ylamine] | 35% | 
C(#Cc1ccc(-c2nc3cnccn3c2NC2CCCCC2)s1)c1ccccc1 [Example 87, N-cyclohexyl-2-(5-(phenylethynyl)thiophen-2-yl)imidazo[1,2-a]pyrazin-3-amine] | 35% | 
Cc1cc(Br)c2nc(-c3ccc(C#Cc4ccccn4)s3)c(NC3CCCC3)n2c1 [Example 92, 8-bromo-N-cyclopentyl-6-methyl-2-(5-(pyridin-2-ylethynyl)thiophen-2-yl)imidazo[1,2-a]pyridin-3-amine] | 82% | 
Cc1cc(Br)c2nc(-c3cccc(C#Cc4ccccn4)c3)c(NC(C)(C)C)n2c1 [Example 96, 8-bromo-N-tert-butyl-6-methyl-2-(3-(pyridin-2-ylethynyl)phenyl)imidazo[1,2-a]pyridin-3-amine] | 79% | 

Second part, the compound after the results:

inhibition at 10 µM | IC50 | Compound
 | 33 nM | CC(C)(C)CC(C)(C)Nc1c(-c2ccc(C#Cc3ccccn3)s2)nc2cnccn12 [Example 64, [2-(5-pyridin-2-ylethynyl-thiophen-2-yl)-imidazo[1,2-a]pyrazin-3-yl]-(1,1,3,3-tetramethyl-butyl)-amine]
 | 1060 nM | CCCCNc1c(-c2ccc(C#Cc3ccccc3)s2)nc2cnccn12 [Example 70, butyl-[2-(5-phenylethynyl-thiophen-2-yl)-imidazo[1,2-a]pyrazin-3-yl]-amine]
 | 1270 nM | CC(C)CNc1c(-c2ccc(C#Cc3ccccc3)s2)nc2cnccn12 [Example 71, (2-methylpropyl)-[2-(5-phenylethynyl-thiophen-2-yl)-imidazo[1,2-a]pyrazin-3-yl]-amine]
 | 1100 nM | C(#Cc1ccc(-c2nc3cnccn3c2NCc2ccccc2)s1)c1ccccc1 [Example 74, benzyl-[2-(5-phenylethynyl-thiophen-2-yl)-imidazo[1,2-a]pyrazin-3-yl]-amine]
 | 1290 nM | COC(=O)CNc1c(-c2ccc(C#Cc3ccccc3)s2)nc2cnccn12 [Example 75, [2-(5-phenylethynyl-thiophen-2-yl)-imidazo[1,2-a]pyrazin-3-ylamino]-acetic acid methyl ester]
 | 3.7 nM | CC(C)(C)Nc1c(-c2ccc(C#Cc3ccncc3)s2)nc2cnccn12 [Example 76, tert-butyl-[2-(5-pyridin-4-ylethynyl-thiophen-2-yl)-imidazo[1,2-a]pyrazin-3-yl]-amine]
 | 5.7 nM | CC(C)(C)Nc1c(-c2ccc(C#Cc3ccccn3)s2)nc2cnccn12 [Example 77, tert-butyl-[2-(5-pyridin-2-ylethynyl-thiophen-2-yl)-imidazo[1,2-a]pyrazin-3-yl]-amine]
 | 200 nM | CC(C)(C)Nc1c(-c2ccc(C#Cc3cccnc3)s2)nc2cnccn12 [Example 82, tert-butyl-[2-(5-pyridin-3-ylethynyl-thiophen-2-yl)-imidazo[1,2-a]pyrazin-3-yl]-amine]
 | 1320 nM | COC(=O)c1nccn2c(NC(C)(C)CC(C)(C)C)c(-c3ccc(C#Cc4ccccc4)s3)nc12 [Example 84, methyl-2-(5-(phenylethynyl)thiophen-2-yl)-3-(2,4,4-trimethylpentan-2-ylamino)imidazo[1,2-a]pyrazine-8-carboxylate]
 | 2010 nM | CC(C)(C)CC(C)(C)Nc1c(-c2ccc(C#Cc3ccccc3)s2)nc2ncccn12 [Example 85, 2-(5-(phenylethynyl)thiophen-2-yl)-N-(2,4,4-trimethylpentan-2-yl)imidazo[1,2-a]pyrimidin-3-amine]
 | 320 nM | Cc1cccc(C#Cc2ccc(-c3nc4cnccn4c3NC(C)(C)CC(C)(C)C)s2)n1 [Example 86, 2-(5-((6-methylpyridin-2-yl)ethynyl)thiophen-2-yl)-N-(2,4,4-trimethylpentan-2-yl)imidazo[1,2-a]pyrazin-3-amine]
 | 1400 nM | C(#Cc1ccc(-c2nc3cnccn3c2N2CCCCC2)s1)c1ccccc1 [Example 88, 2-(5-(phenylethynyl)thiophen-2-yl)-3-(piperidin-1-yl)imidazo[1,2-a]pyrazine]
 | 45 nM | CN(c1c(-c2ccc(C#Cc3ccccc3)s2)nc2cnccn12)C(C)(C)C [Example 89, N-tert-butyl-N-methyl-2-(5-(phenylethynyl)thiophen-2-yl)imidazo[1,2-a]pyrazin-3-amine]
 | 250 nM | CCN(CC)c1c(-c2ccc(C#Cc3ccccc3)s2)nc2cnccn12 [Example 93, N,N-diethyl-2-(5-(phenylethynyl)thiophen-2-yl)imidazo[1,2-a]pyrazin-3-amine]
 | 1740 nM | CC(C)(C)Nc1c(-c2ccc(C#Cc3ccccc3)o2)nc2cnccn12 [Example 95, N-tert-butyl-2-(5-(phenylethynyl)furan-2-yl)imidazo[1,2-a]pyrazin-3-amine]
